Assay results taken from US20090176776A1, “SMALL MOLECULE INHIBITORS OF HIV-1 CAPSID ASSEMBLY” (UNIVERSITY OF ALABAMA AT BIRMINGHAM, priority 2005, published 2009).

Key:
[1] = MTS score (Table 1; method not described); assay type: cell-based; details: for MTS AVG 4 (No Effect): average of the MTS scores at 10, 30 and 100 μM; for MTS 10 μM: score at nominal 10 μM; for MTS 10 μM / MTS 30 μM / MTS 100 μM: 4 = No Effect; for MTS 30 μM: score at nominal 30 μM; for MTS 100 μM: score at nominal 100 μM
[2] = molecular target: T1, recombinant HIV-1 capsid protein (CA) (Human immunodeficiency virus type 1 group M subtype B, UniProt P12493); experiment: Turbidity based HIV-1 capsid assembly assay; assay type: biochemical; details: initial assembly rate by turbidity; twofold dilutions over a 128 fold range; 30 μM CA, 2.25 M NaCl
T1 construct: recombinant HIV-1 capsid protein (CA); made in house
Procedure: The kinetics can be followed by monitoring the increase of turbidity using a spectrophotometer. The IC50 of the chemical compound tested is determined by titration. As the C-domain inhibits capsid assembly by forming CA-C-domain heterodimers, the effect of added C-terminal domain on the rate of assembly was evaluated by plotting the rate of assembly versus C-terminal domain concentration.
Soluble HIV-1 capsid protein can be triggered to assemble into tubes similar in diameter and morphology to intact cores by dilution into high iconic strength buffer. The kinetics of assembly can be followed by monitoring the increase in turbidity using a spectrophotometer (Lanham et al., J. Virol., 76:6900, 2002). This assembly assay was adapted to a 96-well, microplate format to allow for medium-throughput screening of compounds by measuring turbidity in a Nepeloskan Ascent plate reader (Thermo Electron Corp., UK). A DIVERSet™ library of 10,000 low molecular weight, “drug-like” compounds was purchased from ChemBridge Corp. (San Diego, Calif.). This library was selected for its potential bioavailability and application based on a pharmacophore diversity analysis. The average molecular weight of the compounds is 347 g/mol, the range being 200-596 g/mol. The compounds came plated in 96-well plates and solubilized in DMSO at 5 mgs/mL.
Turbidity based assay. A 1.5 μL aliquot of compound was diluted 90-fold into 50 mM Na2HPO4, […] buffer, pH 8 in an optically clear 96-well plate. The plate containing compounds and salt was read to check for compound solubility and to serve as a background reading for the assay. To initiate the assembly reaction, 15 μL of […] stock (in 50 mM Na2HPO4 pH 8) of recombinant HIV-1 capsid protein (CA), purified as described (Lanman et al., J. Virol., 76:6900, 2002), was added to each well of the 96-well plate using a multi-channel pipettor. […] Furthermore, the halftime of the assembly reaction is ˜5 minutes so reading the plate in thirds prevented loss of initial rate data. Therefore, CA was added to the first 4 lanes, the reactions followed for ten minutes, reading was paused, CA was then added to the next four lanes and the process repeated. Instrument settings are as follows: PMT gain of 500 V, lamp at 10V, and integration time of 60 ms. The data were exported to a custom designed Excel spreadsheet that allowed simultaneous plotting of kinetic curves.
Recombinant CA protein was purified as previously described and stored at 300 μM at −80° C. A turbidity based assembly assay, described above, was adapted to a 96-well, microplate format to allow for medium-throughput screening of compounds in a Nepheloskan Ascent plate reader (Thermo Electron Corp., UK). A 1.5 μL aliquot of compound or DMSO was diluted 90-fold into 50 mM Na2HPO4, 2.25 M NaCl buffer, pH 8 in an optically clear 96-well plate. To initiate the assembly reaction, 15 μL of the 300 μM stock (in 50 mM Na2HPO4 pH 8) of recombinant HIV-1 capsid protein (CA), was added to each well of the 96-well plate using a multi-channel pipettor.

[3] = tested on: HIV-1YU2; experiment: Anti-HIV assay (multiple round), luciferase expression in Luc-M7 cells; assay type: cell-based; details: Luc-M7 cells infected with HIV-1YU2, 6 days, Bright-Glo
Procedure: (§1) Anti-HIV Assays (Multiple Round). The inhibitory effects of the tested compounds on HIV-1YU2 replication were determined by the level of luciferase expression after 6 days of infection using Bright-Glo assay (Promega). An amount of 1.5×10^4 Luc-M7 (a gift from Ned Landau) cells per ml were infected with HIV-1YU2 at a multiplicity of infection (MOI) of 3. The HIV-1 infected ([…] compound) or mock-infected (0-300 μM compound) Luc-M7 cells were placed in 96-well culture plates (100 μl/well) with 100 μl of various concentrations of the compounds with 20 μg/ml DEAE Dextran in triplicate and incubated at 37° C. under 5% CO2 at 100% humidity. After 6 days, cell viability was quantified by Cell-Titer Glo assay (Promega). […] On day 5 cell viability was determined in the mock-infected cells. FIGS. 12-18 show the anti-HIV assays for the examples of chemical compounds used according to the invention. After in-vitro assay, the chemical compounds in FIGS. 12-18 were selected for screening for cell viability and toxicity. Jurkat cells assay was used as screening assay. […] After five days, GFP expression was read. Cell viability was monitored with Alamar Blue assay. Luc M7 assay was designed to measure inhibitory activity of the chemical compounds to viral replication. After infection of cells with YU2 virus, plate cells in 96-well plate in the presence of six concentration of compounds in DMSO. At day 6, the number of cells in wells were read with Cell Titer Glo kit or by counting the number of cells infected with Bright Glo kit. 293T cells assay was designed to determine the toxicity. 293T cells were transfected with NL43. After four hours, transfected cells were plated in 96-well plate in DMSO and 2 μM Indinavir. 72 hours later, viral supernatant was collected and plated on J[…].

[4] = tested on: Luc-M7 cells; experiment: Cell viability of Luc-M7 cells (Cell-Titer Glo); assay type: cell-based; design: unit: μM; details: mock-infected Luc-M7 cells, 6 days
Procedure: as §1

| Compound | MTS AVG 4 (No Effect) [1] | MTS 10 μM [1] | MTS 30 μM [1] | MTS 100 μM [1] | IC50 [2] | IC50 [3] | TC50 [4] |
| --- | --- | --- | --- | --- | --- | --- | --- |
| Cc1ccc(OCC(=O)NN=Cc2c(Br)cc(Br)c(O)c2Br)cc1 [Compound 3] | 3.667 | 4 | 3 | 4 | 7 µM |  |  |
| CC(=NNC(=O)C(O)c1ccccc1)c1ccc2c(c1)CCCC2 (stereo not drawn) [Compound 6] | 3.000 | 4 | 3 | 2 | 9 µM | 15.4 µM | 36.8 |
| CCOC(=O)c1c(N2C(=O)C=CC2=O)sc2c1CCCC2 [Compound 8] | 3.667 | 4 | 4 | 3 | 4 µM | 13.3 µM | 27.7 |
| Oc1ccc(C=NNc2cc(N3CCOCC3)nc(N3CCOCC3)n2)c(O)c1 [Compound 9] | 2.000 | 4 | 1 | 1 | 7 µM |  |  |
| Nc1nc(-c2ccccc2Cl)cs1 [Compound 15] | 3.000 | 4 | 3 | 2 | 60 µM | 19.8 µM | 58.9 |
| Cc1cc(F)ccc1NCc1ccccn1 [Compound 16] | 3.000 | 4 | 4 | 1 | 95 µM | 17.8 µM | 66.5 |
| Cc1ccc(NCC(=O)NN=Cc2c(Br)cc(Br)c(O)c2Br)cc1 [Compound 17] | 2.333 | 4 | 1 | 2 | 11 µM |  |  |
| O=C(NN=Cc1c(Br)cc(Br)c(O)c1Br)c1ccccc1[N+](=O)[O-] [Compound 23] | 3.667 | 4 | 4 | 3 | 12 µM |  |  |
| O=C(NN=Cc1cc(Cl)cc([N+](=O)[O-])c1O)c1ccc2c(c1)OCO2 [Compound 37] | 2.000 | 4 | 1 | 1 |  |  |  |
| CC(C)(C)c1ccc(OCC(=O)NN=Cc2ccc(O)c([N+](=O)[O-])c2)cc1 [Compound 38] | 3.333 | 4 | 3 | 3 | 35 µM |  |  |
| COc1c(O)ccc(C=NNC(=O)COc2cccc(C)c2)c1[N+](=O)[O-] [Compound 39] | 2.333 | 4 | 2 | 1 | 28 µM |  |  |
| O=C(O)c1ccc2c(c1)C1C=CCC1C(c1ccc([N+](=O)[O-])cc1)N2 (stereo not drawn) [Compound 41] | 3.667 | 4 | 4 | 3 | 18 µM | 2.1 µM | 65.8 |
| O=C1Nc2c(Br)cc(Br)cc2C1=NNC(=O)C(O)c1ccccc1 (stereo not drawn) [Compound 50] | 2.333 | 4 | 2 | 1 | 15 µM |  |  |
| O=C(COc1ccc2ccccc2c1)NN=Cc1cc(O)c(O)c(Br)c1 [Compound 53] | 2.000 | 4 | 1 | 1 | 33 µM |  |  |
| Cc1ccc(OCC(=O)NN=Cc2ccncc2)cc1 [Compound 56] | 3.333 | 4 | 3 | 3 | 40 µM |  |  |
| O=C(O)c1ccc2c(c1)C1C=CCC1C(c1cccc([N+](=O)[O-])c1)N2 (stereo not drawn) [Compound 59] | 4.000 | 4 | 4 | 4 | 22 µM | 4.5 µM | 84.1 |
| CC(C)(C)c1ccc(OCCN2CCOCC2)cc1 [Compound 60] | 3.333 | 4 | 4 | 2 | 75 µM | 6.98 µM | 125.3 |
| Cc1ccc(C(C)C)c(OCC(=O)NN=Cc2ccc(C(=O)O)cc2)c1 [Compound 65] | 3.667 | 4 | 4 | 3 | 14 µM |  |  |
| COc1ccc(OCC(=O)NN=Cc2cc(O)c(O)c(Br)c2)c(Br)c1 [Compound 71] | 2.333 | 4 | 2 | 1 | 24 µM |  |  |
